Reference: US20250011368A1, “DLL3 TARGETING PEPTIDES AND CONSTRUCTS THEREOF” (MARIANA ONCOLOGY INC., priority 2023, published 2025)
Bridge positions count the residues as written; N and C are the ends. Square brackets hold non-standard residues; d marks the D form. Peptide text beside a SMILES is read from it. * marks the point of attachment. DOTA = O=C(O)CN1CCN(CC(=O)O)CCN(CC(=O)*)CCN(CC(=O)O)CC1; Phe(4-CF3) = N[C@@H](Cc1ccc(C(F)(F)F)cc1)C(=O)O; Ala(morpholin-4-yl) = N[C@@H](CN1CCOCC1)C(=O)O; Trp(5-F) = N[C@@H](Cc1c[nH]c2ccc(F)cc12)C(=O)O; Trp(7-aza) = N[C@@H](Cc1c[nH]c2ncccc12)C(=O)O; Pro(trans-4-F) = O=C(O)[C@@H]1C[C@@H](F)CN1; 2Nal = N[C@@H](Cc1ccc2ccccc2c1)C(=O)O; Nva(3-Et) = CCC(CC)[C@H](N)C(=O)O; 3Pal = N[C@@H](Cc1cccnc1)C(=O)O; 4Pal = N[C@@H](Cc1ccncc1)C(=O)O

Key:
human DLL3 = biological target: T1, human DLL3 (Homo sapiens, UniProt Q9NYJ7); experiment: Affinity determination by Surface Plasmon Resonance (SPR); type: binding; details: 25° C., biotinylated human DLL3 immobilized on streptavidin sensor chip, 1:1 binding model; read-out: SPR KD
T1 sequence (Q9NYJ7 27-618): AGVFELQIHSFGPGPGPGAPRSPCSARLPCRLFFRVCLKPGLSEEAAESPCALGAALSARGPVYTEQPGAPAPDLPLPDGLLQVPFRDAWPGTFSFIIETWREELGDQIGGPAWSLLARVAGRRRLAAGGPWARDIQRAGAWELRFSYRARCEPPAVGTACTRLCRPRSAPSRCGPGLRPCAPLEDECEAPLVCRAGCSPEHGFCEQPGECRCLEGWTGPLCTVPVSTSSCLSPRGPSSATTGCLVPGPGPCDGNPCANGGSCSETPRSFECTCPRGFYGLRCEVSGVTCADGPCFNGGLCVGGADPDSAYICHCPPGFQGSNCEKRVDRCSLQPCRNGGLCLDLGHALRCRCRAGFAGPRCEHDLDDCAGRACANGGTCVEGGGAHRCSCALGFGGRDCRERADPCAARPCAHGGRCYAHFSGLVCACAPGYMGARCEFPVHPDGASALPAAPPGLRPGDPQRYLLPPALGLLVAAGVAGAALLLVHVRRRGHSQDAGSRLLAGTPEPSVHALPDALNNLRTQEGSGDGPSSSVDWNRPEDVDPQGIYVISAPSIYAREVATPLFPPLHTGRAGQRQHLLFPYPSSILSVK
In short: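 Biotinylated human DLL3 was captured on a streptavidin chip with a reference surface. Compounds at several concentrations were injected at 100 μL/minute in phosphate buffer (137 mM NaCl, 2.7 mM KCl, 0.05% P20, 2% DMSO). Affinity and kinetics came from 1:1 model fits of the sensorgrams.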

CT26.DLL3 cells [1] = experiment: Cell binding (total uptake) of [177Lu]Lu-test peptide, CT26.DLL3 cells; type: cell-based; details: 1 hour at 37° C.
Description: (§1) [^177Lu]LuCl3 was received from venders in HCl solution. For every mCi of [^177Lu]LuCl3 added to the reaction vial (1.5 mL Eppendorf vial), ammonium acetate buffer (0.2 M, pH 4.9, 100 μL, containing 1% w/v ascorbic acid and 6% v/v ethanol) and peptide conjugate (1 nmol). A peptide conjugate of the present disclosure is also referred to herein as a “chelator-peptide”. The pH of the solution was determined to be approximately 5 by using pH strips. The reaction vial was incubated at 80° C., 700 RPM for 17-20 minutes. A sample from the reaction was analyzed by RP-HPLC using an Agilent Infinity II 1260 HPLC to determine reaction completion and radiochemical purity of [^177Lu]Lu-chelator-peptide. HPLC conditions: Waters XBridge BEH C18 Column, 130 Å, 3.5 um, 4.6 mm×250 mm; mobile phase: Solvent A=water (with 0.1% formic acid), solvent B=acetonitrile (with 0.1% formic acid). Gradients: 25-45% B in 10 minutes, 45-65% B in 12 minutes, 65-90% in 6 minutes at a flow rate of 0.5 mL/minute. Required amounts of the product was formulated in 1% PBSA for cell studies.
(§2) The study was conducted using SHP-77, CT26.WT, and CT26.DLL3 cells (Table 7) Adherent cell studies: The cells were cultured in appropriate culture media (20 mL) in tissue culture treated T150 flasks at 37° C. and 5% CO2. Adherent cells were detached (60-70% confluent) using 5 mL Versene at 37° C. for 3 minutes. After confirming the viability using countess and count of detached cells using Trypan blue, the cells were centrifuged at 4° C. for 5 minutes (1,000 rpm). The cell pellet obtained was washed once with PBS and resuspended in 1% PBSA to obtain the desired cell concentration (5-25 million cells/mL).
(§3) Cell numbers used for the assay were in the range of 5 million cells/condition −25 million cells/condition.
(§4) Total uptake: Cells were incubated with 300 μL (0.8 μCi) of the incubation buffer (containing radiolabeled peptide [^177Lu] Lu-test peptide) for 1 hour at 37° C. (Table 8). Post incubation, the cells were pelleted and washed 2 times using cold PBS+1% BSA. The supernatant and washes were combined and counted together as “unbound fraction” in a gamma counter. The cells were then resuspended in 300 μL of 1% PBS+1% BSA and counted in the gamma counter as “bound fraction”.
(§5) In these Tables, “A” represents %≤25; “B” represents 25<%≤50; “C” represents %>50.

CT26.DLL3 cells [2] = experiment: Internalization (out of bound fraction) of [177Lu]Lu-test peptide, CT26.DLL3 cells; type: cell-based; details: 1 hour at 37° C., glycine pH 2.5 wash
Description: as §1, §2, §3, §4
Internalization: The resuspended cells in 300 μl of 1% PBSA and counted in the gamma counter as “bound fraction” were collected in 1.5 mL Eppendorf tube and pelleted. The pelleted cells were incubated with 300 μl of 50 mM Glycine pH=2.5 for 3 minutes and then pelleted discarding the supernatant. This process was repeated one more time. The pelleted cells were washed with 300 μl of cold 1% PBSA and then resuspended in 300 μl 0.3M NaOH. This was counted in the gamma counter as “internalized fraction”.
as §5

SHP-77 tumors = experiment: Ex vivo biodistribution of radiolabeled peptides in nude mice bearing SHP-77 tumors; details: [177Lu]Lu labelling, nude mice bearing SHP-77 tumors (n = 3), 24 hours post-injection
Description: Mice were intravenously injected (via the lateral tail vein) with a bolus dose of the radiolabeled peptides for ex vivo biodistribution studies when tumor volumes were in range of 200-400 mm^3 for xenograft mice and when age of the mice was 5-7 weeks for tumor naïve mice studies. To assess the amount of radionuclide injected into individual mice the syringe was assayed in a dose calibrator before and after injection for [^177Lu]Lu-peptide.
Mice were euthanized at pre-determined time points and selected tissues were resected and collected into pre-weighed tubes. The tubes were then reweighed post resection, the difference giving the weight of each tissue. Radioactivity in each tissue was measured using a gamma counter. Counts were decay corrected to the time of injection and percentage of injected activity per gram (% IA/g) was calculated for each tissue based on the injected activity into each individual mouse. Injected activity was converted to counts based on the sensitivity of the gamma counter. The counts in tissue were then converted to the percentage of injected activity and this was divided by the mass of tissue to give % IA/g.

DLL3 on SHP-77 cells = biological target: T2, DLL3 on SHP-77 cells (human, UniProt Q9NYJ7 27-618); experiment: 177Lu-peptide bound to SHP-77 cells, gamma counting; letter grade, key in paragraph 629
T2 construct: SHP-77 cells are human-derived, non-engineered SCLC cells
T2 sequence: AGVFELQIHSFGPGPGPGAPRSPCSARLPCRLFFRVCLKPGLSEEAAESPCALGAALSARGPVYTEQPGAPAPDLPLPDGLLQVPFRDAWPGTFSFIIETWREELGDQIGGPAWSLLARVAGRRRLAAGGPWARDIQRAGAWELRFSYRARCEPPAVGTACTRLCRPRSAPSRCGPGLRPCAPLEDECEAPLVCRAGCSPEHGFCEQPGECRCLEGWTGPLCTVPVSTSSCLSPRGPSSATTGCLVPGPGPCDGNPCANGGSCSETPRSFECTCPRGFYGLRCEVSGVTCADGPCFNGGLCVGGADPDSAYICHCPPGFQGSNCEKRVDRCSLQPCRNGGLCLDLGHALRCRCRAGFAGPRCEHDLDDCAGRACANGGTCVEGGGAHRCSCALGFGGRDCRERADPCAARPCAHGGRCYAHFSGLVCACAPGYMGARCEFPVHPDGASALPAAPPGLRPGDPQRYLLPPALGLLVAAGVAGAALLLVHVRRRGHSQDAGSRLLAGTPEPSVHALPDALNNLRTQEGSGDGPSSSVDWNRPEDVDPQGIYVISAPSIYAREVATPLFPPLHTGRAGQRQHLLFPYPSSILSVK
Description: as §2
(§6) Total uptake: Cells were incubated with 300 μL (0.8 μCi) of the incubation buffer (containing radiolabeled peptide [¹⁷⁷Lu] Lu-test peptide) for 1 hour at 37° C. (Table 8). Post incubation, the cells were pelleted and washed 2 times using cold PBS+1% BSA. The supernatant and washes were combined and counted together as “unbound fraction” in a gamma counter. The cells were then resuspended in 300 μL of 1% PBS+1% BSA and counted in the gamma counter as “bound fraction”.

DLL3 on CT26.DLL3 cells = biological target: T3, DLL3 on CT26.DLL3 cells (Homo sapiens (Human), UniProt Q9NYJ7 27-618); experiment: 177Lu-peptide bound to CT26.DLL3 cells, gamma counting; letter grade, key in paragraph 629
T3 construct: CT26.DLL3 are engineered cells to express DLL3
T3 sequence: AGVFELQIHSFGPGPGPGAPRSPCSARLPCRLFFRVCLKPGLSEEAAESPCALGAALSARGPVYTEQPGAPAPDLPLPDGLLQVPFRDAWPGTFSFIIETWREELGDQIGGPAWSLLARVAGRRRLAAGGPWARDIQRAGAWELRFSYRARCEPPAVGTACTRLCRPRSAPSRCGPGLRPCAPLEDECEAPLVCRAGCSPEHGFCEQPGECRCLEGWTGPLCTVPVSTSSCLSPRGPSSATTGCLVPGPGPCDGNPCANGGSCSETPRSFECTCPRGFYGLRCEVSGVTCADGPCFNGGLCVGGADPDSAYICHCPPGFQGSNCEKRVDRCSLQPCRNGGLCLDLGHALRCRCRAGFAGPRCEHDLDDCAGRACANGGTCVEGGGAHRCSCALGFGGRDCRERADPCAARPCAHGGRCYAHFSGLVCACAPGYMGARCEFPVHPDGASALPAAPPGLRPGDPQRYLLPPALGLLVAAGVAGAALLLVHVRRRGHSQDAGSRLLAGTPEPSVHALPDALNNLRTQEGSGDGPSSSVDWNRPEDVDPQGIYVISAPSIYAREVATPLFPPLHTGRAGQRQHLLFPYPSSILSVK
Description: as §2, §6

Ac-(5Fluoro-W)-T-(CHA)-C(3)-N-N-(2Nal)-H-D-C(3)-(7Aza-W)-(trans4Fluoro-P)-[D-Lys(DOTA)]-NH2 [compound 245]
Kd (human DLL3): < 1 nM
% Binding (CT26.DLL3 cells [1]): A (%≤25)
% Internalization (out of bound fraction) (CT26.DLL3 cells [2]): B (25<%≤50)
kidney uptake (% IA/g) (SHP-77 tumors): D (% IA/g > 10 in kidney)
tumor uptake (% IA/g) (SHP-77 tumors): A (0 < % IA/g ≤ 5 in tumor)

CC[C@H](C)[C@H](NC(=O)[C@@H](NC(=O)[C@H](Cc1c[nH]c2ccccc12)NC(C)=O)[C@@H](C)O)C(=O)N[C@H]1CSSC[C@@H](C(=O)N[C@@H](Cc2c[nH]c3ccccc23)C(=O)N2CCC[C@H]2C(=O)N[C@H](CCCCNC(=O)CN2CCN(CC(=O)O)CCN(CC(=O)O)CCN(CC(=O)O)CC2)C(N)=O)NC(=O)[C@H](CC(=O)O)NC(=O)[C@H](Cc2cnc[nH]2)NC(=O)[C@H](Cc2ccc3ccccc3c2)NC(=O)[C@H](CC(N)=O)NC(=O)[C@H](CN2CCOCC2)NC1=O [compound 261, Ac-W-T-I-C(3)-[3-(1-morpholinyl)-Ala]-N-(2Nal)-H-D-C(3)-W-P-[D-Lys(DOTA)]-NH2] (Ac-WTIC[Ala(morpholin-4-yl)]N[2Nal]HDCWP[dK](DOTA)-NH2; disulfide 4-10)
Kd (human DLL3): < 1 nM
% Binding (CT26.DLL3 cells [1]): A (%≤25)
% Internalization (out of bound fraction) (CT26.DLL3 cells [2]): B (25<%≤50)
kidney uptake (% IA/g) (SHP-77 tumors): C (0 < % IA/g ≤ 10 in kidney)
tumor uptake (% IA/g) (SHP-77 tumors): A (0 < % IA/g ≤ 5 in tumor)

Ac-[Trp(5-F)]T[Nva(3-Et)]CNN[Phe(4-CF3)]HDC[Trp(7-aza)][Pro(trans-4-F)][dK](DOTA)-NH2 (disulfide 4-10; also: 177Lu complexed in the DOTA chelator) [[177Lu]Lu-labelled Cpd No. 146]
% Binding (DLL3 on SHP-77 cells): < 25%

Ac-WTICN[4Pal][2Nal]HDCWP[dK](DOTA)-NH2 (disulfide 4-10; also: 177Lu in the DOTA chelator, also called [177Lu]Lu-test peptide) [[177Lu]Lu-labelled Cpd No. 266]
% Binding (DLL3 on CT26.DLL3 cells): ≤ 25%

Ac-WTIC[Ala(morpholin-4-yl)]N[2Nal]HDCWP[dK](DOTA)-NH2 (disulfide 4-10; also: 177Lu in the DOTA chelator, also called [177Lu]Lu-test peptide) [[177Lu]Lu-labelled Cpd No. 261]
% Binding (DLL3 on CT26.DLL3 cells): ≤ 25%

Ac-WTIC[3Pal]N[2Nal]HDCWP[dK](DOTA)-NH2 (disulfide 4-10; also: 177Lu in the DOTA chelator, also called [177Lu]Lu-test peptide) [[177Lu]Lu-labelled Cpd No. 263]
% Binding (DLL3 on CT26.DLL3 cells): ≤ 25%

Ac-WTIC[4Pal]N[2Nal]HDCWP[dK](DOTA)-NH2 (disulfide 4-10; also: 177Lu in the DOTA chelator, also called [177Lu]Lu-test peptide) [[177Lu]Lu-labelled Cpd No. 264]
% Binding (DLL3 on CT26.DLL3 cells): ≤ 25%
